Each block holds one compound with its values, some of them ahead of it.
Tests used:
[1] = system: IMiD-dependent CRL4^CRBN substrates; assay: TMT quantification mass spectrometry proteomics, IMiD-dependent neo-substrates (hESC, Kelly, SK-N-DZ, MM1s cells); type: cell-based, human; settings: for substrate specificity: proteins degraded across cell lines: hESC, MM1s, Kelly, SK-N-DZ cells expressing detectable levels of the proteins; for number of substrates identified (rank order): proteomics, treatment with different IMiDs
Method: Since degradation is mediated through CRL4^CRBN, and because CRBN expression levels are high in the central nervous system (CNS), the effects of IMiDs were assessed in two different neuroblastoma cell lines, Kelly and SK-N-DZ cells, as well as the commonly used multiple myeloma cell line, MM1s, as a control.
Proteins were precipitated using methanol/chloroform.

SALL4 = target: T1, SALL4 (Homo sapiens, UniProt Q96SW2+Q9UJQ4); assay: Western blot of SALL4 protein levels in human cell lines; type: cell-based; settings: for effect of co-treatment on IMiD-induced SALL4 degradation: co-treatment with thalidomide, 5 μM bortezomib, 5 μM MLN4924, 0.5 μM MLN7243, HEK293T, SK-N-DZ cells; for SALL4 degradation in CRBN−/− cells: CRBN−/− Kelly and HEK293T cells; for SALL4 protein levels by western blot: 24 hours
T1 construct: endogenous in cells; host or cells: Kelly, SK-N-DZ, HEK293T (western blot)
Method: HEK293T cells were cultured in DMEM supplemented with 10% dialyzed fetal bovine serum (FBS) and 2 mM L-Glutamine. SK-N-DZ cells were cultured in DMEM supplemented with 10% dialyzed FBS, 0.1 mM Non-Essential Amino Acids (NEAA) and 2 mM L-Glutamine. H661, MM1s and Kelly cells were cultured in RPMI1640 supplemented with 10% dialyzed FBS. H9 hESC cells were cultured in Essential 8 (Gibco) media on Matrigel-coated nunc tissue culture plates.
(§1) Samples were run on 4-20%, AnyKD or 10% (in-vitro ubiqutination assay) SDS-PAGE Gels (Bio-rad), and transferred to PVDF membranes using the iBlot 2.0 dry blotting system (Thermo Fisher Scientific). Membranes were blocked with LiCor blocking solution (LiCor), and incubated with primary antibodies overnight, followed by three washes in LiCor blocking solution and incubation with secondary antibodies for one hour in the dark. After three final washes, the membranes were imaged on a LiCor fluorescent imaging station (LiCor). When Anti-mouse IgG, HRP Antibody was used, after three washes, the membranes were incubated with Amersham ECL Prime Western Blotting Detection Reagent for 1 minute and subjected to imaging by Amersham Imager 600 (GE).

[2] = cited from earlier work; for plasma half-life (t1/2) / Cmax: typical dose of 200-400 mg, 25 mg, or 2 mg for thalidomide, lenalidomide, or pomalidomide; for Cmax: read-out: maximum plasma concentration (Cmax)
[3] = target: SALL4 ZnF domains and DDB1ΔB-CRBN (Homo sapiens, UniProt Q96SW2+Q9UJQ4); assay: TR-FRET in vitro CRBN binding assay; settings: SALL4ZnF2; in accordance with cellular potency in degradation of SALL4
Method: Before TR-FRET measurements were conducted, the reactions were incubated for 15 minutes at RT. […] The TR-FRET signal of each data point was extracted by calculating the 520/490 nm ratios.

mmSALL4 = target: T2, mmSALL4 (Mus musculus, UniProt Q8BX22); assay: Western blot of mmSALL4 in mouse embryonic stem cells; type: cell-based; settings: mESC, increasing concentrations, 24 hours
T2 construct: endogenous in cells; host or cells: TC1 mouse embryonic stem cells
Method: HEK293T cells were cultured in DMEM supplemented with 10% dialyzed fetal bovine serum (FBS) and 2 mM L-Glutamine. SK-N-DZ cells were cultured in DMEM supplemented with 10% dialyzed FBS, 0.1 mM Non-Essential Amino Acids (NEAA) and 2 mM L-Glutamine. H661, MM1s and Kelly cells were cultured in RPMI1640 supplemented with 10% dialyzed FBS. H9 hESC cells were cultured in Essential 8 (Gibco) media on Matrigel-coated nunc tissue culture plates. TC1 mouse embryonic stem cells (mESCs) were adapted to gelatin cultures and fed with KO-DMEM (Gibco) supplemented with 15% stem cell-qualified fetal bovine serum (FBS, Gemini), 2 mM L-glutamine (Gibco), 20 mM HEPES (Gibco), 1 mM sodium pyruvate (Gibco), 0.1 mM of each non-essential amino acids (Gibco), 0.1 mM 2-mercaptoethanol (Sigma), […] mLIF (Gemini).
Cells were treated with compounds as indicated and incubated for 24 hours, or as indicated. Samples were run on 4-20%, AnyKD or 10% (in-vitro ubiqutination assay) SDS-PAGE Gels (Bio-rad), and transferred to PVDF membranes using the iBlot 2.0 dry blotting system (Thermo Fisher Scientific). Membranes were blocked with LiCor blocking solution (LiCor), and incubated with primary antibodies overnight, followed by three washes in LiCor blocking solution and incubation with secondary antibodies for one hour in the dark. […]

Flag-mmSALL4 = Flag-mmSALL4 (UniProt Q8BX22+Q96SW2); assay: Western blot of transiently transfected Flag-mmSALL4 in Kelly cells; type: cell-based, mouse; settings: Y415F, P418S, I419V, L430F, Q435H
Method: as §1, with “Cells were treated with compounds as indicated and incubated for 24 hours, or as indicated. Samples” for “Samples”
(§2) hsCRBN, hsSALL4, mmSALL4 and drSALL4 were PCR amplified and cloned into a pNTM-Flag based vector. Mutagenesis was performed using the Q5 site-directed mutagenesis kit (NEB, USA) with primers designed using the BaseChanger web server (http://nebasechanger.neb.com/).
For transient transfection, 0.2 million cells were seeded per well in a 12 well plate on day one. On day two, cells were transfected with 200-300 ng of plasmid (pNTM-Flag containing gene of interest) using 2 μL of lipofectamine 2000 transfection reagent (Invitrogen). […]

SALL4 mRNA = assay: Quantitative RT-PCR of total SALL4 mRNA in H9 hES cells; type: cell-based, human; settings: 10 μM thalidomide, 24 hours, normalized to GAPDH
Method: RNA was isolated using the RNeasy Plus mini kit (Qiagen) and cDNA created by reverse transcription using ProtoScript II reverse transcriptase (NEB) following the manufacturer's instructions. The following primer sets from IDT were used with SYBR Green Master Mix (Applied Biosystems) to probe both GAPDH and total SALL4 levels:
Analysis was performed on a CFX Connect Real-Time PCR System (Bio-Rad) in a white 96-well PCR plate. Relative expression levels were calculated using the […] method.

Flag-hsSALL4 = assay: Western blot of transiently transfected Flag-hsSALL4 (WT or mutant) in Kelly cells; type: cell-based, human; settings: 24 hours
Method: as §1, with “Cells were treated with compounds as indicated and incubated for 24 hours, or as indicated. Samples” for “Samples”
as §2
For transient transfection, 0.2 million cells were seeded per well in a 12 well plate on day one. On day two, cells were transfected with 200-300 ng of plasmid (pNTM-Flag containing gene of interest) using 2 μL of lipofectamine 2000 transfection reagent (Invitrogen). On day three, desired concentration of IMiD was added to each well and cells were harvested after 24 hours for western blot analysis using the protocol described above.

[4] = Kelly, SK-N-DZ, HEK293T and H661 cells, increasing concentrations

T1 sequence (Q9UJQ4 whole entry): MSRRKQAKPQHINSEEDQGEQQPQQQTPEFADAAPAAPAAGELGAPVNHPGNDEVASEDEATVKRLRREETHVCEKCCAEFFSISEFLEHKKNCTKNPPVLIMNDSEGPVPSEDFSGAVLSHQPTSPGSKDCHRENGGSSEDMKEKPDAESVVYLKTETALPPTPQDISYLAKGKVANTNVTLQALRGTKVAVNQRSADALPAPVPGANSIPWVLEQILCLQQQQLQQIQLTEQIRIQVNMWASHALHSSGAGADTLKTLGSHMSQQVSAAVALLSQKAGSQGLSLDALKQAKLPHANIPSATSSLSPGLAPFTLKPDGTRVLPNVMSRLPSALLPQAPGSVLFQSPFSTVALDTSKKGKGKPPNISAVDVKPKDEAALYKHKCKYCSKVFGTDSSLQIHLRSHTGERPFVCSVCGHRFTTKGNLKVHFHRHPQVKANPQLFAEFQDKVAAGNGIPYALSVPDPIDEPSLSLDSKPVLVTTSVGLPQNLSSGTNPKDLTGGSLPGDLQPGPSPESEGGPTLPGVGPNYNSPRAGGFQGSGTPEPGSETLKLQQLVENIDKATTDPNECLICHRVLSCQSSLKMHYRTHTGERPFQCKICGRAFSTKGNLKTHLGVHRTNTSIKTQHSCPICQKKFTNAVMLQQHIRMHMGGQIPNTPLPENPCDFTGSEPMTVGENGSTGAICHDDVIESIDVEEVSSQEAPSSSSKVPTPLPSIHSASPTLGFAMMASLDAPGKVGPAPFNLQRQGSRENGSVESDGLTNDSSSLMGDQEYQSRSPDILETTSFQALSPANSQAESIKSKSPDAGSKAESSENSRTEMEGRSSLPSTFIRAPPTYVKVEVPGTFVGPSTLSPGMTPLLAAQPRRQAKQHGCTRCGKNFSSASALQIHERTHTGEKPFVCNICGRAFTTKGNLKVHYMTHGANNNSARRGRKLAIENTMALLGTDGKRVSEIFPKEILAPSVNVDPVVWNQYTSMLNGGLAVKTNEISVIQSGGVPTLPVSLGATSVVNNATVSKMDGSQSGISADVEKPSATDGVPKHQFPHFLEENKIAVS
T1 sequence (Q96SW2 whole entry): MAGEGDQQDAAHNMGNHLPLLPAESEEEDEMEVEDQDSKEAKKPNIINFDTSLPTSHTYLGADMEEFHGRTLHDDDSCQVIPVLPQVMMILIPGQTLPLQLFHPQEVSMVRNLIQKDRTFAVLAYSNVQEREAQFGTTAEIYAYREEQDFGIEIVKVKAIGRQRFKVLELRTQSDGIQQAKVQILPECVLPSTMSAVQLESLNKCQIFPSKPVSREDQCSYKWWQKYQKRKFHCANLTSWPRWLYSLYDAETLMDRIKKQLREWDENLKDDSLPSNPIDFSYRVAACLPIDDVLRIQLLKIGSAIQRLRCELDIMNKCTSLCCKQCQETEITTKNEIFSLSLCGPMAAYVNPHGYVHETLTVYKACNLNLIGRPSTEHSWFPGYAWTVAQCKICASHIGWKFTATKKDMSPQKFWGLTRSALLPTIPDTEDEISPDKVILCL
T1 sequence (Q16531 2-1140 partner limits assumed): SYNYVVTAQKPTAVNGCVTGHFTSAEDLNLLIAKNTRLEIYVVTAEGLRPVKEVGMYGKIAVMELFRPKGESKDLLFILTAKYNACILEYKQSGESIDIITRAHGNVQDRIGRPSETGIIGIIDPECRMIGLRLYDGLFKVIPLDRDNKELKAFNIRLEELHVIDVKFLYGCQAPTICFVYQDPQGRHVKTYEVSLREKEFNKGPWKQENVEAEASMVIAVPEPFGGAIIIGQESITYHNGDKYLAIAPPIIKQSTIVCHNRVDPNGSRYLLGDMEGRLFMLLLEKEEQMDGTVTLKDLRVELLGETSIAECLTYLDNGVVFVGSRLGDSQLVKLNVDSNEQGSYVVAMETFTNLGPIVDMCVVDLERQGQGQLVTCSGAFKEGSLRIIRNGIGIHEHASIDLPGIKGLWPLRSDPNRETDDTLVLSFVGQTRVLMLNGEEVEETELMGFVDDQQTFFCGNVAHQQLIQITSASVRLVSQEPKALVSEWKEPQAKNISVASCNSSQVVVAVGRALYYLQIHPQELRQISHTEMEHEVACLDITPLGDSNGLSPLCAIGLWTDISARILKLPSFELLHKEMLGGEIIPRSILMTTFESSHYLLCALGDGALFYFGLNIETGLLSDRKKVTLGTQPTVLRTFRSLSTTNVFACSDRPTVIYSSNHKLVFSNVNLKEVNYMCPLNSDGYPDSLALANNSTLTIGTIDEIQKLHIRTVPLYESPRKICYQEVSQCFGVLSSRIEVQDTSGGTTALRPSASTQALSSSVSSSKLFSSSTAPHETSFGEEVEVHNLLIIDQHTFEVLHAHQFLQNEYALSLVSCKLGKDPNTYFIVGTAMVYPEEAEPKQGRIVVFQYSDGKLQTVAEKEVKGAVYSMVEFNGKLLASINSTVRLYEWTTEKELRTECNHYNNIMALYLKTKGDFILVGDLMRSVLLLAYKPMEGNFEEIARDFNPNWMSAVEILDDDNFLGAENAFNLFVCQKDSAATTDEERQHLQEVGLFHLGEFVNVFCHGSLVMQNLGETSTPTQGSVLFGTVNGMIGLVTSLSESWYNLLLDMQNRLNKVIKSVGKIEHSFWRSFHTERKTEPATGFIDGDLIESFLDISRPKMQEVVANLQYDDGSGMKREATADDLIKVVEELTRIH
Chain of SALL4 ZnF domains and DDB1ΔB-CRBN (Q96SW2 whole entry, stated change not applied, the tested form may be a part): as the sequence (Q96SW2 whole entry) above
Chain of SALL4 ZnF domains and DDB1ΔB-CRBN (Q9UJQ4 402-436, stated change not applied): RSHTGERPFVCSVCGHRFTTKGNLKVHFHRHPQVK
Chain of Flag-mmSALL4 (Q8BX22 whole entry): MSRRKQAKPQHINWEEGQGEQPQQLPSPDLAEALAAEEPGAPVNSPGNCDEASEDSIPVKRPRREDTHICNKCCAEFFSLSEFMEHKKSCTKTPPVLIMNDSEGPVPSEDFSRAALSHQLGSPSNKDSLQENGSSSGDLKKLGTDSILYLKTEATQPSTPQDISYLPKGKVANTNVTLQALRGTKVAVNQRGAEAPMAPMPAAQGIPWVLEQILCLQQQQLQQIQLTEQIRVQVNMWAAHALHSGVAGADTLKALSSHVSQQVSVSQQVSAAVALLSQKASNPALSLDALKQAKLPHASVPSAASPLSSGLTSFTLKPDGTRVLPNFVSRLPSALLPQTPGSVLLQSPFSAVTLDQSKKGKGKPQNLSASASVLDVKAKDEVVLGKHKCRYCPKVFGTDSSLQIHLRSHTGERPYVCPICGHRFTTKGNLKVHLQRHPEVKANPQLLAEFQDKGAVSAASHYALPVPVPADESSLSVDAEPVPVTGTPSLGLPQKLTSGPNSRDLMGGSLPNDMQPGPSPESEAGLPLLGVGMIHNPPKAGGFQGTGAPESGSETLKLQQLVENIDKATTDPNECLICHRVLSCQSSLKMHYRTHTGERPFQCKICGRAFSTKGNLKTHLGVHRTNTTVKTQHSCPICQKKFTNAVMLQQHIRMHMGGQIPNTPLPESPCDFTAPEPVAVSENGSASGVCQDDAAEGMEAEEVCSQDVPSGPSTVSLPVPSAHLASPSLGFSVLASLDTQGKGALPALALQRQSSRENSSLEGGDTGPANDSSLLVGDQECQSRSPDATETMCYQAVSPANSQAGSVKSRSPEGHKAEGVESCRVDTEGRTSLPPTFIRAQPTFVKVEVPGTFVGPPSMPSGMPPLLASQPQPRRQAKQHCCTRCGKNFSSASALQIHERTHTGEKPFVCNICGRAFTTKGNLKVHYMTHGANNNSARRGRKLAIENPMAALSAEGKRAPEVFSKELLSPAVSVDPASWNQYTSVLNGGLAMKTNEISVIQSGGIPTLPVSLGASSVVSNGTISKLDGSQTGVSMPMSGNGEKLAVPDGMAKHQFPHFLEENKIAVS
Chain of Flag-mmSALL4 (Q96SW2 whole entry): as the sequence (Q96SW2 whole entry) above
Chain of Flag-mmSALL4 (Q16531 2-1140 partner limits assumed): as the sequence (Q16531 2-1140 partner limits assumed) above

SMILES: O=C1CC[C@H](N2Cc3c(OCc4ccc(CN5CCOCC5)cc4)cccc3C2=O)C(=O)N1 [CC-220]
degradation of ZnF targets including SALL4 (proteomics) ([1]; SK-N-DZ cells, 0.1 μM CC-220, 1 μM dBET57, 5 hours (FIG. 6C)): effective inducers of ZnF targets including SALL4 degradation

SMILES: CC(C)C[C@H](NC(=O)[C@H](Cc1ccccc1)NC(=O)c1cnccn1)B(O)O [bortezomib]
effect of co-treatment on IMiD-induced SALL4 degradation (SALL4; Kelly): abrogated

SMILES: Nc1cccc2c1CN(C1CCC(=O)NC1=O)C2=O (stereo not shown) [lenalidomide]
plasma half-life (t1/2) [2]: ~3 h

SMILES: Nc1cccc2c1C(=O)N(C1CCC(=O)NC1=O)C2=O (stereo not shown) [pomalidomide]
rank order in binding observed with ZnF2 [3]: Pom >Thal>>Len
SALL4 degradation in CRBN−/− cells (SALL4; increasing concentrations): no degradation of SALL4 was observed
SALL4 protein levels by western blot (SALL4; H9 hESC, increasing doses): dose dependent decrease in protein levels
earliest time of SALL4 degradation post-treatment (SALL4; Kelly cells, 1 or 5 μM pomalidomide): 4 h
SALL4 protein levels by western blot (SALL4; [4]): dose-dependent decrease
degradation of mmSALL4 (mmSALL4): does not promote degradation of mmSALL4
further proteins degraded in proteomics ([1]; H9 hESC, 5 hours, 5 μM lenalidomide, 1 μM pomalidomide): degradation of additional targets including the previously characterized zinc finger protein ZFP91 (An et al., 2017), and the largely uncharacterized proteins ZBTB39, FAM83F, WIZ, RAB28, and DTWD1
substrate specificity: proteins degraded across cell lines [1]: robust degradation of ZBTB39, ZFP91, DTWD1, and ZNF653
number of substrates identified (rank order) [1]: Thal <Len<<Pom
plasma half-life (t1/2) [2]: ~9 h
Cmax [2]: 0.05 µM

SMILES: O=C1CCC(N2C(=O)c3ccccc3C2=O)C(=O)N1 (stereo not shown) [thalidomide, 2-(2,6-dioxopiperidin-3-yl)-1H-isoindole-1,3(2H)-dione]
rank order in binding observed with ZnF2 [3]: Pom >Thal>>Len
degradation of mmSALL4 with humanized ZnF2 domain (Flag-mmSALL4): degradation was induced
SALL4 degradation at plasma-relevant concentration (SALL4; 10 μM): effective degradation of SALL4
SALL4 degradation in CRBN−/− cells (SALL4; increasing concentrations): no degradation of SALL4 was observed
SALL4 protein levels by western blot (SALL4; H9 hESC, increasing doses): dose dependent decrease in protein levels
SALL4 protein levels by western blot (SALL4; [4]): dose-dependent decrease
degradation of mmSALL4 (mmSALL4): does not promote degradation of mmSALL4
SALL4 mRNA level (SALL4 mRNA): does not reduce the level of SALL4 mRNA, but rather upregulates SALL4 mRNA
SALL4 mRNA level (SALL4 mRNA; listed as Thalidomide): did not influence the expression of SALL4 mRNA
substrate specificity: proteins degraded across cell lines [1]: robust degradation of the zinc finger transcription factors ZNF692, SALL4, and the ubiquitin ligase RNF166
number of substrates identified (rank order) [1]: Thal <Len<<Pom
plasma concentration in humans ([2]; human, in vivo): ≤ 10 µM
plasma half-life (t1/2) [2]: 6 to 8 h
Cmax [2]: 5 to 10 µM
degradation of wild type Flag-hsSALL4 (Flag-hsSALL4): readily degraded
degradation of Flag-SALL4 with G416A or G416N mutations in ZnF2 (Flag-hsSALL4; thalidomide): rendered SALL4 stable
degradation of Flag-SALL4 with G600A or G600N mutations in ZnF4 (Flag-hsSALL4; thalidomide): readily degraded

Continued, in another order:

effect of co-treatment on IMiD-induced SALL4 degradation (SALL4; Kelly): abrogated
SMILES: NS(=O)(=O)OC[C@@H]1C[C@@H](n2ccc3c(N[C@H]4CCc5ccccc54)ncnc32)C[C@@H]1O [MLN4924]
effect of co-treatment on IMiD-induced degradation of targets (rescue proteomics) ([1]; SK-N-DZ cells, 1 μM pomalidomide + 5 μM MLN4924, 5 hours): fully abrogated IMiD-induced degradation of targets

effect of co-treatment on IMiD-induced SALL4 degradation (SALL4; Kelly): abrogated
SMILES: NS(=O)(=O)OC[C@H]1C[C@@H](Nc2ccnc3cc(-c4cccc(SC(F)(F)F)c4)nn23)[C@H](O)[C@@H]1O [MLN7243]
